Laboratory results as given in patent US20260250318A1, “COMPOSITIONS AND METHODS FOR CROSSING THE BLOOD BRAIN BARRIER” (VOYAGER THERAPEUTICS, INC., priority 2022, published 2026).

How the values were obtained:
Settings in all cases: synthetic library passage 3, intravenous, relative to wild-type AAV9
[1] = system: brain; test: NGS fold enrichment of synthetic library (passage 3) in BALB/c mice, first cross-species screen; assay type: in vivo
Experimental: (§1) After creation of the synthetic library with the sub-selected variants, the synthetic library was screened (passage 3) in two NHPs (2-4 years of age) and two strains of mice, BALB/c (n=3, 6-8 weeks of age) and C57Bl/6 mice (n=3, 6-8 weeks of age), in a first cross-species evolution screen. The animals were injected intravenously with the synthetic library. After a period in vivo, (e.g., 28-days) RNA was extracted from nervous tissue, e.g., brain, spinal cord, and DRG of the NHPs and the brains of mice. Following RNA recovery and RT-PCR amplification, a systematic NGS enrichment analysis was performed, and the peptides comprised within the variants were identified and the capsid enrichment ratio for each variant compared to the wild-type AAV9 control was calculated (fold enrichment relative to wild-type AAV9) (Table 9). […] All animals were dosed intravenously at […] across the screen.

[2] = system: brain; test: NGS fold enrichment of synthetic library (passage 3) in C57Bl/6 mice, first cross-species screen; assay type: in vivo
Experimental: as §1

[3] = system: brain, spinal cord, and DRG of the NHPs; test: NGS fold enrichment of synthetic library (passage 3) in NHPs, first cross-species screen; assay type: in vivo, cynomolgus macaques (Macaca fascicularis)
Experimental: as §1

[4] = RNA from brain of BALB/c mice, NGS
[5] = RNA from brain of C57Bl/6 mice, NGS
[6] = RNA from spinal cord of NHPs, NGS

| Sequence | Fold enrichment over AAV9 in the brain of Mice (BALB/c) ([1]; RNA NGS, brain of BALB/c mice) | Fold enrichment over AAV9 in the brain of Mice (C57Bl/6) ([2]; RNA NGS, brain of C57Bl/6 mice) | Fold enrichment over AAV9 in the brain of NHPs ([3]; RNA NGS, brain of NHPs) | Fold enrichment over AAV9 in the spinal cord of NHPs ([3]; RNA NGS, spinal cord of NHPs) | Fold enrichment over AAV9 in the brain of Mice (BALB/c) [1, 4] | Fold enrichment over AAV9 in the brain of Mice (C57Bl/6) [2, 5] | Fold enrichment over AAV9 in the brain of NHPs ([3]; RNA from brain of NHPs, NGS) | Fold enrichment over AAV9 in the spinal cord of NHPs [3, 6] |
| --- | --- | --- | --- | --- | --- | --- | --- | --- |
| GGGDLGRSSQNQQT | 0.539 fold | 0.916 fold | 3.036 fold | 4.830 fold |  |  |  |  |
| GGGPMAGSGQNQQT | 0.372 fold | 1.049 fold | 1.735 fold | 2.815 fold |  |  |  |  |
| GGGTKMDSGQNQQT | 0.297 fold | 0.733 fold | 3.034 fold | 0.000 fold |  |  |  |  |
| GGITWTDSGQNQQT | 0.468 fold | 1.472 fold | 1.462 fold | 4.535 fold |  |  |  |  |
| GGLGSMSSGQNQQT | 0.822 fold | 1.802 fold | 2.812 fold | 1.405 fold |  |  |  |  |
| GGLSHVMSGQNQQT | 0.378 fold | 0.885 fold | 1.875 fold | 0.403 fold |  |  |  |  |
| GGQVAPSSGQNQQT | 0.709 fold | 1.433 fold | 2.581 fold | 2.427 fold |  |  |  |  |
| GGRIVSLSGQNQQT | 0.847 fold | 1.161 fold | 1.766 fold | 4.936 fold |  |  |  |  |
| GGRNGHTVGQNQQT | 1.003 fold | 1.105 fold | 2.965 fold | 3.732 fold |  |  |  |  |
| GGSHTYGGGQNQQT |  |  |  |  | 0.730 fold | 0.982 fold | 1.241 fold | 13.065 fold |
| GGTRVVDSGQNQQT | 0.370 fold | 0.676 fold | 1.676 fold | 9.735 fold |  |  |  |  |
| GGVLVGGSGQNQQT | 0.688 fold | 1.527 fold | 2.778 fold | 0.178 fold |  |  |  |  |
| GGYHSQTSGQNQQT | 1.525 fold | 1.740 fold | 1.978 fold | 2.642 fold |  |  |  |  |
| GHAGSTGSGQNQQT |  |  |  |  | 1.233 fold | 1.332 fold | 1.352 fold | 2.829 fold |
| GHAHYQASGQNQQT |  |  |  |  | 0.745 fold | 0.803 fold | 1.377 fold | 7.299 fold |
| GHHTTVQSGQNQQT | 0.755 fold | 0.851 fold | 2.177 fold | 6.245 fold |  |  |  |  |
| GHLTMHNSGQNHQT | 0.586 fold | 1.030 fold | 1.938 fold | 1.798 fold |  |  |  |  |
